# Experiments:
# [1] = Chronic vincristine toxicity in mice, with and without Cronassial; format: in vivo, Male Swiss Schneider mice; conditions: for SURVIVORS No.at 30 d / survival at 720 h: chronic, host SN; for survival at 720 h: ip, 200 mg/kg, read-out: SURVIVAL % at 30 d
# Procedure: (§1) Toxicity acute and chronic. Male Swiss Schneider mice with a body weight of 25-30g were used for these experiments. Mice were usually kept in groups of not more than 8 in standard cages. Food and water were supplied ad libidum. The animals were kept in experimental rooms under closely controlled conditions. They were weighed daily. For acute vincristine toxicity in chicks, 48 hour old SPF chicks were used.
# (§2) Vincristine. A standard vial of 'Oncovin' (Eli Lilly Co.) containing 1 mg of vincristine was used. It was made up with the appropriate volume of diluting fluid to give the final concentration required to inject 0.1 ml/10 g body weight.
# (§3) Cronassial®. A solution of this substance, which is a mixture of four gangliosides, was prepared by the addition of a volume of sterile distilled water sufficient to give a concentration of 200 mg/kg in a volume of 0.2 ml. This dose was given to mice of approximately 20g.
# Giving daily injections of vincristine of 0.8 mg/kg for 5 days was close to the LD₅₀. By giving 200 mg/kg Cronassial® at the same time as the vincristine, the number of survivors at 30 days was increased to 100% Almost identical results were obtained by using 1 mg/kg vincristine, even though the drugs were administered for only 4 days. However the total dosage of vincristine administered in the two experiments (4 mg/kg) was identical. Increasing the cumulative dose of vincristine from 4 to 5 mg/kg increased the mortality of the mice to 100%. With this overwhelming toxicity, there was little or no protection offered by the Cronassial®.
# [2] = Acute vincristine toxicity in mice, with and without Cronassial; format: in vivo, Male Swiss Schneider mice
# Procedure: as §1, §2, §3
# [3] = Acute vincristine toxicity in chicks, with and without Cronassial; format: in vivo, 48 hour old SPF chicks; conditions: for SURVIVORS AT 24hrs / SURVIVORS AT 28hrs / SURVIVORS AT 52hrs: acute, SPF 48hr chick, in combination CRON 200 mg/kg at same time
# Procedure: as §1
# In contrast,of those chicks which received 200 mg/kg Cronassial® at the same time as the vincristine, only 2/5 had died at 24 hours but only 1 remained alive at 28 hours.
# With 4 mg/kg vincristine, 4/5 chicks survived for 24 hours but only 1/5 survived for 28 hours. The chicks which additionally, received 200 mg/kg Cronassial® survived better with 3/5 surviving to 28 hours.
# [4] = tested on: sarcoma S180; experiment: Antitumour activity against sarcoma S180 (tumour weight); format: in vivo, Male Swiss Schneider mice; conditions: S180, host SN; VCR 0.5 mg/kg ip days 1-6; in combination CRON 200 mg/kg ip days 1-6, 6hrs before VCR; CMC-controls 1.05
# From the text: (§4) Antitumour effects. Male Swiss Schneider mice of 27g body weight were used for the sarcoma S180 experiments: female C₅₇Bl mice of 20g body weight were used for the B16 melanoma experiments; male BDF₁ mice of 30g body weight were used for the L1210 leukaemia experiments; and C₅₇Bl mice of 20g body weight were used for the Lewis lung experiments.
# Sarcoma S180. This tumour has been transplanted in the same strain of mouse for more than 10 years.
# Transplantation was done by subcutaneous inoculation of 0.1 ml of a tumour mash made by finely mincing viable tumour tissue and passing it repeatedly through a 26 gauge needle into a sterile Petri dish. 0.1 ml of penicillin (20,000 m/ml) and streptomycin (20,000 m/ml) were added to the mash, as well as neomycin (5 mgs).
# [5] = tested on: melanoma B16; experiment: Antitumour activity against melanoma B16 (tumour weight); format: in vivo, female C₅₇Bl mice; conditions: B16, host C5781; VCR 0.5 mg/kg ip days 1-4,7-11; in combination CRON 200 mg/kg, 6hrs before VCR; CMC-controls 2.33
# Procedure: as §4
# Melanoma B16. This tumour was prepared for inoculation in a manner identical to that used for the S180 sarcoma.
# [6] = tested on: leukaemia L1210; experiment: Antitumour activity against leukaemia L1210 (survival); format: in vivo, BDF₁ mice; conditions: L1210, host BDF1; VCR 1.0 mg/kg ip days 1-3; in combination CRON 200 mg/kg ip days 1-3, same time as VCR; CMC-controls 8.0
# Procedure: Antitumour effects. Male Swiss Schneider mice of 27g body weight were used for the sarcoma S180 experiments: female C₅₇Bl mice of 20g body weight were used for the B16 melanoma experiments; […]; and C₅₇Bl mice of 20g body weight were used for the Lewis lung experiments.
# L1210. Spleens were removed from animals 7 days after inoculation of L1210 cells and these spleens were finely minced with 1:100 isotonic saline. 0.1 ml of this spleen and leukaemia L1210 cell suspension was then injected subcutaneously into the flank of each BDF₁.
structure (smiles),measurement,setting,value
"CC[C@]1(O)C[C@H]2CN(CCc3c([nH]c4ccccc34)[C@@](C(=O)OC)(c3cc4c(cc3OC)N(C=O)[C@H]3[C@@](O)(C(=O)OC)[C@H](OC(C)=O)[C@]5(CC)C=CCN6CC[C@]43[C@@H]65)C2)C1 [VCR, vincristine]",SURVIVORS No.at 30 d,"[1]; VCR 0.8 mg/kg ip days 1-5, in combination CRON 200 mg/kg ip days 1-5, 6hrs before VCR",5/8
same,SURVIVORS No.at 30 d,"[1]; VCR 1.0 mg/kg ip days 1-4, in combination CRON 200 mg/kg ip days 1-4, 6hrs before VCR",3/8
same,SURVIVORS No.at 30 d,"[1]; VCR 1.0 mg/kg ip days 1-5, in combination CRON 200 mg/kg ip days 1-5, 6hrs before VCR",0/6
same,survival at 720 h,"[1]; mouse, in vivo, VCR 0.8 mg/kg ip days 1-5, in combination CRON 200 mg/kg ip days 1-5, 6hrs before VCR",62.5%
same,survival at 720 h,"[1]; mouse, in vivo, VCR 1.0 mg/kg ip days 1-4, in combination CRON 200 mg/kg ip days 1-4, 6hrs before VCR",37.5%
same,survival at 720 h,"[1]; mouse, in vivo, VCR 1.0 mg/kg ip days 1-5, in combination CRON 200 mg/kg ip days 1-5, 6hrs before VCR",0%
same,mortality,"[1]; mouse, in vivo, cumulative dose of vincristine 5 mg/kg, mice",100%
same,LD50,"[1]; mouse, in vivo, daily injections of vincristine for 5 days, mice, read-out: LD₅₀",~0.8 mg/kg
same,SURVIVORS No.at 30 d,"[2]; acute, host SN, VCR 3.0 mg/kg iv day 1, in combination CRON 200 mg/kg ip day 1, 6hrs before VCR",2/8
same,survival at 720 h,"[2]; mouse, in vivo, acute, host SN, VCR 3.0 mg/kg iv day 1, in combination CRON 200 mg/kg ip day 1, 6hrs before VCR, read-out: SURVIVAL % at 30 d",25%
same,mortality at 720 h,"[2]; mouse, in vivo, vincristine 3.0 mg/kg, one intravenous injection, Swiss Schneider mice, in combination 200 mg/kg Cronassial 6 hours before, read-out: deaths by day 30",75%
same,toxicity,"[3]; 48 hour old chicks, vincristine 2 mg/kg, in combination Cronassial also given",little toxicity
same,chicks with no acute neurotoxic signs during the first 4 hours,"[3]; 48 hour old chicks, vincristine 6 mg/kg",3/4
same,dead at 24 hours,"[3]; 48 hour old chicks, vincristine 6 mg/kg, in combination 200 mg/kg Cronassial at the same time",All the chicks were dead
same,SURVIVORS AT 24hrs,[3]; VCR 2.0 mg/kg ip day 1,2/2
same,SURVIVORS AT 28hrs,[3]; VCR 2.0 mg/kg ip day 1,2/2
same,SURVIVORS AT 52hrs,[3]; VCR 2.0 mg/kg ip day 1,1/2
same,SURVIVORS AT 24hrs,[3]; VCR 4.0 mg/kg ip day 1,4/5
same,SURVIVORS AT 28hrs,[3]; VCR 4.0 mg/kg ip day 1,1/5
same,SURVIVORS AT 52hrs,[3]; VCR 4.0 mg/kg ip day 1,1/5
same,SURVIVORS AT 24hrs,[3]; VCR 6.0 mg/kg ip day 1,0/4
same,TUMOUR WEIGHTS MEAN,[4],0.64 g
same,TUMOUR WEIGHTS MEAN,[5],1.46 g
same,Mean survival time,[6],7.8 days

# Reference: patent EP0345251B1 (priority 1986, dated 1988)
